Data: patent US20160158149A1, “Inhalable Pharmaceutical Compositions and the Inhaler Devices Containing Them” (priority 2013, published 2016)

What was measured:
[1] = Fine particle dose (FPD) of the inhaler assembly, invention versus conventional; format: physicochemical; details: aerodynamic diameter 1 to 5 μm, assembly of the invention relative to conventional disk-shaped inhaler
Protocol: (§1) Pharmacokinetic data of an assembly for an inhaler according to the different embodiments of the invention described above together with the different variants of the pharmaceutical composition of the invention including salmeterol xinafoate and fluticasone proprionate were determined in comparison to the pharmacokinetic data of a conventional assembly including a disk-shaped inhaler housing a mixture of salmeterol xinafoate and fluticasone proprionate. Such a disk shaped inhaler is for example described in the PCT application WO 2001/97886 A1.
(§2) In particular, the fine particle dose (FPD), which is the amount of particles with an aerodynamic diameter of between 1 to 5 μm, the area under the curve (AUC), corresponds to the integral of the plasma concentration of an administered pharmaceutical drug substance versus an interval of definite time and Cmax, which is the maximum concentration measured for a pharmaceutical in the blood of test persons after it was administrated and prior to the administration of a second dose, were determined.

[2] = Pharmacokinetic data (AUC, Cmax) after inhalation, invention versus conventional assembly; format: in vivo, test persons
Protocol: as §1, §2

Compound	Ratio invention/conventional FPD 1-5 μm [1]	Ratio invention/conventional Point estimate Cmax ([2]; maximum concentration in blood of test persons, assembly of the invention relative to conventional disk-shaped inhaler)	Ratio invention/conventional Point estimate AUC ([2]; plasma concentration versus time, assembly of the invention relative to conventional disk-shaped inhaler)	Ratio invention/conventional Point estimate AUC ([2]; human, in vivo)	Ratio invention/conventional Point estimate Cmax ([2]; human, in vivo, inhaled or intranasal)
CCC(=O)O[C@]1(C(=O)SCF)[C@H](C)C[C@H]2[C@@H]3C[C@H](F)C4=CC(=O)C=C[C@]4(C)[C@@]3(F)[C@@H](O)C[C@@]21C [Fluticasone, fluticasone proprionate]	0.93	1.66	1.42	–	–
OCc1cc(C(O)CNCCCCCCOCCCCc2ccccc2)ccc1O (stereo not drawn) [Salmeterol, salmeterol xinafoate]	0.90	–	–	1.25	1.69
